Measurements from PubChem BioAssay AID1963444 (Molecular Pharmacology Branch, DTP, NCI, 2024).

System: HSSY-II complex spheroid growth, percent test/control
Assay: Anticancer human tumor HSSY-II cell line growth inhibition [Asc];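 further: spheroids exposed to drug for 7 days before reading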
Settings: for IC50: curve of first compound; for viability, T/C: stronger effect = lower value
Outline: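 Complex solid-tumor spheroids incorporating human endothelial and mesenchymal stem cells received single agents or combinations over half-log dilution ranges anchored to clinical Cmax.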

[1] = second compound 0.1 µM, first compound 0.0316 µM
[2] = second compound 0.1 µM, first compound 0.1 µM
[3] = second compound 0.1 µM, first compound 0.316 µM
[4] = second compound 0.1 µM, first compound 1 µM
[5] = second compound 0.1 µM, first compound 3.16 µM
[6] = second compound 0.1 µM, first compound 10 µM
[7] = second compound 0.316 µM, first compound 0.0316 µM
[8] = second compound 0.316 µM, first compound 0.1 µM
[9] = second compound 0.316 µM, first compound 0.316 µM
[10] = second compound 0.316 µM, first compound 1 µM
[11] = second compound 0.316 µM, first compound 3.16 µM
[12] = second compound 0.316 µM, first compound 10 µM
[13] = second compound 1 µM, first compound 0.0316 µM
[14] = second compound 1 µM, first compound 0.1 µM
[15] = second compound 1 µM, first compound 0.316 µM
[16] = second compound 1 µM, first compound 1 µM
[17] = second compound 1 µM, first compound 3.16 µM
[18] = second compound 1 µM, first compound 10 µM
[19] = second compound 3.16 µM, first compound 0.0316 µM
[20] = second compound 3.16 µM, first compound 0.1 µM
[21] = second compound 3.16 µM, first compound 0.316 µM
[22] = second compound 3.16 µM, first compound 1 µM
[23] = second compound 3.16 µM, first compound 3.16 µM
[24] = second compound 3.16 µM, first compound 10 µM
[25] = second compound 10 µM, first compound 0.0316 µM
[26] = second compound 10 µM, first compound 0.1 µM
[27] = second compound 10 µM, first compound 0.316 µM
[28] = second compound 10 µM, first compound 1 µM
[29] = second compound 10 µM, first compound 3.16 µM
[30] = second compound 10 µM, first compound 10 µM

`C=C(F)C(=O)N1CCN(c2nc(OCC3CCCN3C)nc3c2CCN(c2cccc4cccc(Cl)c24)C3)CC1CC#N` (stereo not given) + Cc1c(S(C)(=O)=O)c(-c2cc(F)cc(N3CCN(c4ccc(NS(=O)(=O)c5ccc(NC(CCN6CCC(C(=O)OCCCP(=O)(O)O)CC6)CSc6ccccc6)c(S(=O)(=O)C(F)(F)F)c5)cc4)CC3)c2)c(-c2ccc(Cl)cc2)n1C(C)C was tested, and the IC50 (second compound 0.1 µM) was 1440 nM, the IC50 (second compound 0.316 µM) was 1360 nM and the IC50 (second compound 1 µM) was 1150 nM. For the same molecule, the IC50 (second compound 3.16 µM) was 1030 nM, the IC50 (second compound 10 µM) was 997 nM and the viability, T/C [1] was 106%. It also gave a viability, T/C [2] of 106%, a viability, T/C [3] of 86.7% and a viability, T/C [4] of 72.7%. For the same molecule, the viability, T/C [5] was 0.9%, the viability, T/C [6] was 0.13% and the viability, T/C [7] was 105%. For the same molecule, the viability, T/C [8] was 92%, the viability, T/C [9] was 84% and the viability, T/C [10] was 68%. The viability, T/C [11] was 0.59%, the viability, T/C [12] was 0.11% and the viability, T/C [13] was 98.4%. It also gave a viability, T/C [14] of 97.3%, a viability, T/C [15] of 95.6% and a viability, T/C [16] of 57%. The viability, T/C [17] was 0.36%, the viability, T/C [18] was 0.12% and the viability, T/C [19] was 104%. For the same molecule, the viability, T/C [20] was 98%, the viability, T/C [21] was 97% and the viability, T/C [22] was 51.6%. For the same molecule, the viability, T/C [23] was 0.27%, the viability, T/C [24] was 0.13% and the viability, T/C [25] was 106%. The viability, T/C [26] was 113%, the viability, T/C [27] was 85.3% and the viability, T/C [28] was 55.7%. The viability, T/C [29] was 0.4% and the viability, T/C [30] was 0.22%.
`C=CC(=O)N1CCN(c2nc(=O)n(-c3c(C)ccnc3C(C)C)c3nc(-c4c(O)cccc4F)c(F)cc23)C(C)C1` (stereo not given) + Cc1c(S(C)(=O)=O)c(-c2cc(F)cc(N3CCN(c4ccc(NS(=O)(=O)c5ccc(NC(CCN6CCC(C(=O)OCCCP(=O)(O)O)CC6)CSc6ccccc6)c(S(=O)(=O)C(F)(F)F)c5)cc4)CC3)c2)c(-c2ccc(Cl)cc2)n1C(C)C showed an IC50 (second compound 0.1 µM) greater than 10000 nM, an IC50 (second compound 0.316 µM) greater than 10000 nM and an IC50 (second compound 1 µM) greater than 10000 nM. For the same molecule, the IC50 (second compound 3.16 µM) was greater than 10000 nM, the IC50 (second compound 10 µM) was greater than 10000 nM and the viability, T/C [1] was 116%. The viability, T/C [2] was 121%, the viability, T/C [3] was 105% and the viability, T/C [4] was 111%. For the same molecule, the viability, T/C [5] was 97.8%, the viability, T/C [6] was 67.7% and the viability, T/C [7] was 114%. It also gave a viability, T/C [8] of 110%, a viability, T/C [9] of 105% and a viability, T/C [10] of 99.9%. The viability, T/C [11] was 114%, the viability, T/C [12] was 67.8% and the viability, T/C [13] was 104%. The viability, T/C [14] was 111%, the viability, T/C [15] was 96.4% and the viability, T/C [16] was 100%. It also gave a viability, T/C [17] of 105%, a viability, T/C [18] of 51.3% and a viability, T/C [19] of 109%. For the same molecule, the viability, T/C [20] was 99.9%, the viability, T/C [21] was 101% and the viability, T/C [22] was 107%. For the same molecule, the viability, T/C [23] was 103%, the viability, T/C [24] was 55% and the viability, T/C [25] was 100%. It also gave a viability, T/C [26] of 99.2%, a viability, T/C [27] of 93.1% and a viability, T/C [28] of 110%. It also gave a viability, T/C [29] of 96.7% and a viability, T/C [30] of 61.3%.
In the case of `CCN1C(C(=O)NC23CCC(C(=O)O)(CC2)CC3)C(c2cccc(Cl)c2F)C2(C(=O)Nc3cc(Cl)ccc32)C12CCCCC2` (stereo not given) + Cc1c(S(C)(=O)=O)c(-c2cc(F)cc(N3CCN(c4ccc(NS(=O)(=O)c5ccc(NC(CCN6CCC(C(=O)OCCCP(=O)(O)O)CC6)CSc6ccccc6)c(S(=O)(=O)C(F)(F)F)c5)cc4)CC3)c2)c(-c2ccc(Cl)cc2)n1C(C)C, the IC50 (second compound 0.1 µM) is reported as 100 nM, the IC50 (second compound 0.316 µM) is reported as 59.4 nM and the IC50 (second compound 1 µM) is reported as 83.5 nM. It also gave an IC50 (second compound 3.16 µM) of 54.2 nM, an IC50 (second compound 10 µM) of 53.9 nM and a viability, T/C (second compound 0.1 µM, first compound 0.00949 µM) of 106%. For the same molecule, the viability, T/C (second compound 0.1 µM, first compound 0.03 µM) was 92.7%, the viability, T/C (second compound 0.1 µM, first compound 0.0949 µM) was 49.4% and the viability, T/C (second compound 0.1 µM, first compound 0.3 µM) was 19.4%. The viability, T/C (second compound 0.1 µM, first compound 0.949 µM) was 3.79%, the viability, T/C (second compound 0.1 µM, first compound 3 µM) was 0.58% and the viability, T/C (second compound 0.316 µM, first compound 0.00949 µM) was 102%. It also gave a viability, T/C (second compound 0.316 µM, first compound 0.03 µM) of 78.1%, a viability, T/C (second compound 0.316 µM, first compound 0.0949 µM) of 29.7% and a viability, T/C (second compound 0.316 µM, first compound 0.3 µM) of 11.1%. The viability, T/C (second compound 0.316 µM, first compound 0.949 µM) was 3.4%, the viability, T/C (second compound 0.316 µM, first compound 3 µM) was 0.3% and the viability, T/C (second compound 1 µM, first compound 0.00949 µM) was 104%. For the same molecule, the viability, T/C (second compound 1 µM, first compound 0.03 µM) was 84.6%, the viability, T/C (second compound 1 µM, first compound 0.0949 µM) was 47.4% and the viability, T/C (second compound 1 µM, first compound 0.3 µM) was 9.68%. For the same molecule, the viability, T/C (second compound 1 µM, first compound 0.949 µM) was 1.67%, the viability, T/C (second compound 1 µM, first compound 3 µM) was 0.19% and the viability, T/C (second compound 3.16 µM, first compound 0.00949 µM) was 94.3%. It also gave a viability, T/C (second compound 3.16 µM, first compound 0.03 µM) of 73.3%, a viability, T/C (second compound 3.16 µM, first compound 0.0949 µM) of 28% and a viability, T/C (second compound 3.16 µM, first compound 0.3 µM) of 4.69%. The viability, T/C (second compound 3.16 µM, first compound 0.949 µM) was 1.19%, the viability, T/C (second compound 3.16 µM, first compound 3 µM) was 0.17% and the viability, T/C (second compound 10 µM, first compound 0.00949 µM) was 92.8%. For the same molecule, the viability, T/C (second compound 10 µM, first compound 0.03 µM) was 73.6%, the viability, T/C (second compound 10 µM, first compound 0.0949 µM) was 27.2% and the viability, T/C (second compound 10 µM, first compound 0.3 µM) was 4.78%. For the same molecule, the viability, T/C (second compound 10 µM, first compound 0.949 µM) was 1.16% and the viability, T/C (second compound 10 µM, first compound 3 µM) was 0.26%.
